The source of these data is US20050288323A1, “Octahydro-indolizine and quinolizine and hexahydro-pyrrolizine” (priority 2000, published 2005).

A word on the Ki: it is a dissociation constant, usually derived from enzyme kinetics or from competition with a known ligand. Low values mean tighter binding, high ones weaker binding.

In one test the target is T1, human histamine H3 receptor (Homo sapiens, UniProt Q9Y5N1).
T1 construct: One microgram of supercoiled H3 receptor cDNA was added to the cells and mixed; expressed in transfected cells; membranes
T1 sequence (Q9Y5N1 whole entry): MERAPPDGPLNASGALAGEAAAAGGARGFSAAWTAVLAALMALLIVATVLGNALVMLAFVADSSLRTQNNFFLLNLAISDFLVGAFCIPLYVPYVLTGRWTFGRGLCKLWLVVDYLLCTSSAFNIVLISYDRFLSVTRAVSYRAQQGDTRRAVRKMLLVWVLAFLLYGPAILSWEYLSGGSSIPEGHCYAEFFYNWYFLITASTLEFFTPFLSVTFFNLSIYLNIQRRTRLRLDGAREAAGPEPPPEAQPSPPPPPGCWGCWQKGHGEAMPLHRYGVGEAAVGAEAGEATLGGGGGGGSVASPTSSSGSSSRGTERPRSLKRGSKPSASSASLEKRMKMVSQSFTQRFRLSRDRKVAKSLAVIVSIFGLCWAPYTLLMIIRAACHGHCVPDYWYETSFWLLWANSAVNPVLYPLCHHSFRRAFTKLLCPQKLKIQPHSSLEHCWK
Put plainly: [3H]-N-methylhistamine binding. The conditions noted are these: Table 1; [3H]-N-methylhistamine binding. The procedure: Thus in the present invention receptor binding was determined using the human histamine H3 receptor (See Lovenberg et al Mol. Pharmacol. 1999, 1107). Screening using the human receptor is particularly important for the identification of new therapies for the treatment of human disease. Conventional binding assays for example are determined using rat synaptosomes (Garbarg et al J. Pharmacol. Exp. Ther. 1992, 263, 304), rat cortical membranes (West et al Mol. Pharmacol. 1990, 610), and guinea pig brain (Korte et al Biochem. Biophys. Res. Commun. 1990, 978). Only limited studies have been performed previously using human tissue but these allude to significant differences in the pharmacology of rodent and primate receptors (West et al Eur. J. Pharmacol. 1999, 233).
Transfection of Cells with Human Histamine Receptor
A 10 cm tissue culture dish with a confluent monolayer of SK-N-MC cells was split two days prior to transfection. Using sterile technique the media was removed and the cells were detached from the dish by the addition of trypsin. One fifth of the cells were then placed onto a new 10 cm dish. Cells were grown in a 37° C. incubator with 5% CO2 in Minimal Essential Media Eagle with 10% Fetal Bovine Serum. After two days cells were approximately 80% confluent. These were removed from the dish with trypsin and pelleted in a clinical centrifuge. The pellet was then re-suspended in 400 μL complete media and transferred to an electroporation cuvette with a 0.4 cm gap between the electrodes (Bio-Rad #165-2088). One microgram of supercoiled H3 receptor cDNA was added to the cells and mixed. The voltage for the electroporation was set at 0.25 kV, the capacitance was set at 960 μF. After electroporation the cells were diluted into 10 mL complete media and plated onto four 10 cm dishes. Because of the variability in the efficiency of electroporation, four different concentrations of cells were plated. The ratios used were; 1:20, 1:10, 1:5, with the remainder of the cells being added to the fourth dish. The cells were allowed to recover for 24 hours before adding the selection media (complete media with 600 μg/mL G418). After 10 days dishes were analyzed for surviving colonies of cells. Dishes with well isolated colonies were used. Cells from individual colonies were isolated and tested. SK-N-MC cells were used because they give efficient coupling for inhibition of adenylate cyclase. The clones that gave the most robust inhibition of adenylate cyclase in response to histamine were used for further study.
[^3H]-N-methylhistamine Binding
Cell pellets from histamine H3 receptor-expressing SK-N-MC cells were homogenized in 20 mM TrisHCl/0.5 mM EDTA. Supernatants from a 800 g spin were collected, recentrifuged at 30,000 g for 30 minutes. Pellets were re-homogenized in 50 mM Tris/5 mM EDTA (pH 7.4). Membranes were incubated with 0.8 nM [^3H]-N-methylhistamine plus/minus test compounds for 45 min at 25° C. and harvested by rapid filtration over GF/C glass fiber filters (pretreated with 0.3% polyethylenimine) followed by four washes with ice cold buffer. Filters were dried, added to 4 mL scintillation cocktail and then counted on a liquid scintillation counter. Non-specific binding was defined with 10 μM histamine. The pKi values were calculated based on a Kd of 800 pM and a ligand concentration ([L]) of 800 pM according to the formula: Ki=(IC50)/(1+([L]/(Kd))
As for `c1cc([C@H]2CC[C@H]3CCCCN32)ccc1OCCN1CCCCC1` (racemic) [Example 16, 3-[4-(2-Piperidin-1-yl-ethoxy)-phenyl]-octahydro-indolizine], the Ki was 9 nM.

Staying with this test, now noted: Table 2; [3H]-N-methylhistamine binding.
For `N#Cc1ccc(Sc2ccc([C@H]3CC[C@H]4CCCCN43)cc2)cc1` (racemic) [Example 38], the affinity, expressed as Ki, was 558 nM.
Regarding `c1ccc(Sc2ccc([C@H]3CC[C@H]4CCCCN43)cc2)nc1` (racemic) [Example 28], the Ki is 205 nM.
The compound `c1ccc2[nH]c(Oc3ccc([C@H]4CC[C@H]5CCCCN54)cc3)nc2c1` (racemic) [Example 30] returned an inhibitory constant (Ki) of 490 nM.

The test is the same for the next values; noted with them: Table 3; [3H]-N-methylhistamine binding.
On to `Nc1cccc(-c2ccc([C@H]3CC[C@H]4CCCCN43)cc2)c1` (racemic) [Example 48], for which the inhibition constant Ki stood at 665 nM.
With `O=Cc1ccsc1-c1ccc([C@H]2CC[C@H]3CCCCN32)cc1` (racemic) [Example 51], the inhibition constant (Ki) stood at 132 nM.
The compound `Fc1ccc(-c2ccc([C@H]3CC[C@H]4CCCCN43)cc2)cc1` (racemic) [Example 53] had a Ki of 415 nM.

Still in this test, the particulars now being: Table 5; [3H]-N-methylhistamine binding.
In turn, `c1c[nH]c(CNc2ccc([C@H]3CC[C@H]4CCCCN43)cc2)n1` (racemic) [Example 134] displayed a Ki of 3640 nM.
For `c1ccc(CN(Cc2ccccc2)c2ccc([C@H]3CC[C@H]4CCCCN43)cc2)cc1` (racemic) [Example 135], affinity was put at a Ki of 3950 nM.

Still in this test, the particulars now being: [3H]-N-methylhistamine 0.8 nM, membranes of H3 receptor-expressing SK-N-MC cells.
As to `c1cc([C@H]2CC[C@H]3CCCCN32)ccc1OCCN1CCCCC1` (racemic) [Example 16, 3-[4-(2-Piperidin-1-yl-ethoxy)-phenyl]-octahydro-indolizine], the inhibition constant Ki was 9.1 nM.
`Clc1ccc(Cc2ccc([C@H]3CC[C@H]4CCCCN43)cc2)cc1` (racemic) [Example 125] had a Ki of 655 nM.
Compound `CN(C)CCNc1cccc([C@H]2CC[C@H]3CCCCN32)c1` (racemic) [Example 56, tran-3-[4-(3-(2-Dimethylaminoethyl)amino)phenyl]octahydroindolizine] displayed a Ki of 75 nM.
Turning to `c1cc([C@@H]2CCC[C@@H]3CCCN32)ccc1OCCCCN1CCCCC1` (racemic) [Example 62], the Ki was 0.7 nM.
In the case of `c1cc([C@@H]2CC[C@@H]3CCCCN32)ccc1NCCCCCN1CCCCC1` (relative stereo) [Example 115, trans-3-[4-(N-5-Piperidylpentylamino)phenyl]octahydroindolizine], the Ki came out at 0.7 nM.
`C(=C\c1ccc([C@H]2CC[C@H]3CCCCN32)cc1)/c1ccncc1` (racemic) [Example 73, trans-3-[4-(4-Pyridinylethenyl)phenyl]octahydroindolizine] returned an inhibition constant Ki of 65 nM.
Take `C[Si](C)(C)C#Cc1ccc([C@H]2CC[C@H]3CCCCN32)cc1` (racemic) [Example 74, trans-3-(4-trimethylsilylacetylenephenyl)octahydroindolizine]: the Ki turned out to be 1500 nM.
In turn, `c1ccc2c(Oc3ccc([C@H]4CC[C@H]5CCCCN54)cc3)ncnc2c1` (racemic) [Example 34, 4-[4-(Octahydro-indolizin-3-yl)-phenoxy]-quinazoline] gave an inhibitory constant (Ki) of 92 nM.
On to `c1cc(Oc2ccc([C@H]3CC[C@H]4CCCCN43)cc2)ccn1` (racemic) [Example 76, trans-3-[4-(4-Pyridyloxy)phenyl]octahydroindolizine], for which the affinity, expressed as Ki, was 77 nM.
As for `c1ccc([C@H]2C[C@@H]3CCCCN3C2)c(OCCCN2CCCCC2)c1` (relative stereo) [Example 71, anti-2-[2-(3-Piperidinylpropoxy)phenyl]octahydroindolizine], the Ki stood at 315 nM.
Compound `c1cc([C@H]2CC3CCCCN3C2)ccc1OCCCN1CCCCC1` (mixture of isomers) [Example 68, anti-2-(4-(3-Piperidinylpropoxy)phenyl)octahydroindolizine] displayed an inhibition constant Ki of 0.2 nM.
With `CS(=O)(=O)N(c1ccc([C@@H]2CC[C@@H]3CCCCN32)cc1)S(C)(=O)=O` (relative stereo) [Example 98, trans-3-(4-(bis-Methylsulfonylamino)phenyl)octahydroindolizine], the Ki stood at 787 nM.
“trans-3-{4-[(2-Pyrrolidylethyl)sulfonylamino]phenyl}octahydroindolizine [Example 122]”: the Ki amounted to 534 nM.
Compound `c1cc(C2CCC3CCCN32)ccc1OCCCN1CCCCC1` (stereo not drawn) [Example 140, 3-[4-(Piperidinylpropoxy)phenyl]hexahydro-1H-pyrrolizine] showed a Ki of 0.6 nM.
`c1cc(OCCCN2CCCCC2)cc([C@H]2C[C@@H]3CCCCN3C2)c1` (racemic) [Example 72, anti-2-[3-(3-Piperidinylpropyloxy)phenyl]octahydroindolizine] came in with an inhibition constant Ki of 0.3 nM.
In the case of `CN1CCCC1CCOc1ccc([C@H]2CC[C@H]3CCCCN32)cc1` (mixture of isomers) [Example 91, trans-3-{4-[2,2′-(N-Methylpyrrolidinyl)ethoxy]phenyl}octahydroindolizine], the affinity corresponds to a Ki of 2 nM.
Take `O=[N+]([O-])c1ccc(Sc2ccc([C@@H]3CCC[C@@H]4CCCN43)cc2)cc1` (racemic) [Example 27, 5-[4-(4-Nitrophenylthio)phenyl]octahydroindolizine]: the affinity corresponds to a Ki of 323 nM.
The same measure, in the same setting: for `c1cc(Sc2ccc(C3CCCC4CCCCN43)cc2)ccn1` (stereo not drawn) [Example 25, 4-[4-(4-Pyridylthio)phenyl]octahydoquinolizine] the value was 305 nM; for `c1cc(Sc2ccc([C@@H]3CCC[C@@H]4CCCN43)cc2)ccn1` (racemic) [Example 26, 5-[4-(4-Pyridinylthio)phenyl]octahydroindolizine], 35 nM; for `Nc1ccc(Oc2ccc([C@H]3CC[C@H]4CCCCN43)cc2)cc1` (racemic) [Example 78, trans-3-[4-(4-Aminophenoxy)phenyl]octahydroindolizine], 296 nM.
On the same count and under the same terms, for `O=C(c1ccc(Cl)cc1)c1ccc([C@H]2CC[C@H]3CCCCN32)cc1` (racemic) [Example 124, trans-3-{4-[(4-Chlorophenyl)methan-1-oxo]phenyl}octahydroindolizine] the value was 368 nM; for `CN(CCCN1CCCCC1)c1ccc([C@@H]2CC[C@@H]3CCCCN32)cc1` (relative stereo) [Example 110, trans-3-[4-(N-Methyl-N-3-piperidylpropylamino)phenyl]octahydroindolizine], 2 nM.
Take `O=S(=O)(CCN1CCCCC1)Nc1ccc([C@H]2CC[C@H]3CCCCN32)cc1` (racemic) [Example 120, trans-3-{4-[(2-Piperidylethyl)sulfonyl]amidophenyl}octahydroindolizine]: the affinity, expressed as Ki, was 11 nM.
As for `CN(c1ccc([C@@H]2CC[C@@H]3CCCCN32)cc1)S(=O)(=O)CCN1CCCCC1` (relative stereo) [Example 121, trans-3-{4-[(2-Piperidylethyl)sulfonyl-N-methylamino]phenyl}octahydroindolizine], the affinity corresponds to a Ki of 19 nM.
Turning to `ClCCCCOc1ccc([C@@H]2CCC[C@@H]3CCCN32)cc1` (racemic) [Example 61, 5-[4-(4-Chlorobutanoxy)phenyl]octahydroindolizine], affinity was put at a Ki of 278 nM.
“trans-3-[4-(Vinylsulfonylamino)phenyl]octahydroindolizine [Example 119]” registered an inhibitory constant (Ki) of more than 5000 nM.
`Nc1ccc(Sc2ccc([C@@H]3CCC[C@@H]4CCCN43)cc2)cc1` (racemic) [Example 39, 5-(4-(4-Aminophenylthio)phenyl)octahydroindolizine] came in with a Ki of 75 nM.
